Tests used:
Stromelysin-1 = Stromelysin-1 (Homo sapiens, UniProt P08254); experiment: Inhibition of Matrix metalloprotease-3
Neutrophil collagenase = Neutrophil collagenase (Homo sapiens, UniProt P22894); experiment: Inhibition of Matrix metalloprotease-8
[1] = biological target: 72 kDa type IV collagenase (Homo sapiens, UniProt P08253); experiment: Inhibition of Matrix metalloprotease-2
Interstitial collagenase = biological target: T1, Interstitial collagenase (Homo sapiens, UniProt P03956); experiment: Inhibition of Matrix metalloprotease-1
T1 sequence (P03956 whole entry): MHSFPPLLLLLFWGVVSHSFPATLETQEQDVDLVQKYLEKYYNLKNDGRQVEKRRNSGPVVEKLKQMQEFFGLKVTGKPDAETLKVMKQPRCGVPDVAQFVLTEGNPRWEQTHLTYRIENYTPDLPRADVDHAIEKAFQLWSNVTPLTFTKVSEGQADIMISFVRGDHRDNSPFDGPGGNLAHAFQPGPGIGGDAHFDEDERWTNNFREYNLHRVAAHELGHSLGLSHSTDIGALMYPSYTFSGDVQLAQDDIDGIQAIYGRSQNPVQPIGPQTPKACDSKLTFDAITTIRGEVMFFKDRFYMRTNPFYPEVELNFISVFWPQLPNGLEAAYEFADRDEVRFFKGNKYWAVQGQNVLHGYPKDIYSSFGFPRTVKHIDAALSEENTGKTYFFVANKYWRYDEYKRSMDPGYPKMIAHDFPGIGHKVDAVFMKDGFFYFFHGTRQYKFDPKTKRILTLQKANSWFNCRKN

[2] = biological target: Matrix metalloproteinase-9 (Homo sapiens, UniProt P14780); experiment: Inhibition of Matrix metalloprotease-9
Chain of Matrix metalloproteinase-9 (P14780 whole entry): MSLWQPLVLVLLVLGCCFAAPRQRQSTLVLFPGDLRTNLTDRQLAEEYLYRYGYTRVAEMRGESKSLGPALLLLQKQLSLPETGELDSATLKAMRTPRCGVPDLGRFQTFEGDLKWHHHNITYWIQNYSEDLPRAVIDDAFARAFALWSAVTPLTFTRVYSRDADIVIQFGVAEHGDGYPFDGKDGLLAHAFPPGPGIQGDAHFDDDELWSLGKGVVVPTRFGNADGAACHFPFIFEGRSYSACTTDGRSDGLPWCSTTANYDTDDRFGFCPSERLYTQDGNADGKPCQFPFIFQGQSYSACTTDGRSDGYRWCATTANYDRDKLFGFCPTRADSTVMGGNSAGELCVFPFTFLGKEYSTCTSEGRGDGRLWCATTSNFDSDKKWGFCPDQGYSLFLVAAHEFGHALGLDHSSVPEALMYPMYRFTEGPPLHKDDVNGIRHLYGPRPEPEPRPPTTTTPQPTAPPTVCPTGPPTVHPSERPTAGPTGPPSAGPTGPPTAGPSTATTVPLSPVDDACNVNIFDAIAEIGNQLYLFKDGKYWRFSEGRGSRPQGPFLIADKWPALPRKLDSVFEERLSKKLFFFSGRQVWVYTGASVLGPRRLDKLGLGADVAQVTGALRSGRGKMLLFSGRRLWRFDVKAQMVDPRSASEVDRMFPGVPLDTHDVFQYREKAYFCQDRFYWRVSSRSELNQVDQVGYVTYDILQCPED

Chain of Neutrophil collagenase (P22894 whole entry): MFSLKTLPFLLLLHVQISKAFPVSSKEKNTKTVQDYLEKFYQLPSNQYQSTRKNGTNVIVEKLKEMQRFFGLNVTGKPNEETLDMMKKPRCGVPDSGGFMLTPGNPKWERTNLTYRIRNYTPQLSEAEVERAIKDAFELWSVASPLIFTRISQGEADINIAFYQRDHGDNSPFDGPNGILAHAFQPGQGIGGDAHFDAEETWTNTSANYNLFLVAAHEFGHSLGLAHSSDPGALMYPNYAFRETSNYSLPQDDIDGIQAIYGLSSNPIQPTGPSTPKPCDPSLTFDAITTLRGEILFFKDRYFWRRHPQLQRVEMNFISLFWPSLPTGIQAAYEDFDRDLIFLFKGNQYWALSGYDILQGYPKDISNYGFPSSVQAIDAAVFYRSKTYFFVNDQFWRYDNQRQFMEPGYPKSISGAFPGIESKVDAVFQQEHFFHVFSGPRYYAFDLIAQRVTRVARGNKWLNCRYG
Chain of 72 kDa type IV collagenase (P08253 whole entry): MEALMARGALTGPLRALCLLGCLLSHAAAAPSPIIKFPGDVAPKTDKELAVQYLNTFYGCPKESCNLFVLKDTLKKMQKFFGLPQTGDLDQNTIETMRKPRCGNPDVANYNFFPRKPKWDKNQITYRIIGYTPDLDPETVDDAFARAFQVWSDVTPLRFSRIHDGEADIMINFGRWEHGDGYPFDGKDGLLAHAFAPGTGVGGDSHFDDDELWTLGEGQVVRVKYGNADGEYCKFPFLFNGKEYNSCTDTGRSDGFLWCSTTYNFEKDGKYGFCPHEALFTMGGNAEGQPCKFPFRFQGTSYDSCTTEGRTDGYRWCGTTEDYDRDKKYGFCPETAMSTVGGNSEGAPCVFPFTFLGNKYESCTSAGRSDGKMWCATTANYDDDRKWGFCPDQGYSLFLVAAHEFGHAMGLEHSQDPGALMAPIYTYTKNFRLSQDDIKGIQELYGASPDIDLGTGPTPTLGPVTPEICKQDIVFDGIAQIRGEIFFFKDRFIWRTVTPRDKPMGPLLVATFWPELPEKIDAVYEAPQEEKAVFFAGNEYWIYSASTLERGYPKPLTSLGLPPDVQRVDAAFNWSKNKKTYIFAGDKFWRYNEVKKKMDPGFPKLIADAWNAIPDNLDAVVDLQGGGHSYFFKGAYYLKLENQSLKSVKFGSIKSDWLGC
Chain of Stromelysin-1 (P08254 whole entry): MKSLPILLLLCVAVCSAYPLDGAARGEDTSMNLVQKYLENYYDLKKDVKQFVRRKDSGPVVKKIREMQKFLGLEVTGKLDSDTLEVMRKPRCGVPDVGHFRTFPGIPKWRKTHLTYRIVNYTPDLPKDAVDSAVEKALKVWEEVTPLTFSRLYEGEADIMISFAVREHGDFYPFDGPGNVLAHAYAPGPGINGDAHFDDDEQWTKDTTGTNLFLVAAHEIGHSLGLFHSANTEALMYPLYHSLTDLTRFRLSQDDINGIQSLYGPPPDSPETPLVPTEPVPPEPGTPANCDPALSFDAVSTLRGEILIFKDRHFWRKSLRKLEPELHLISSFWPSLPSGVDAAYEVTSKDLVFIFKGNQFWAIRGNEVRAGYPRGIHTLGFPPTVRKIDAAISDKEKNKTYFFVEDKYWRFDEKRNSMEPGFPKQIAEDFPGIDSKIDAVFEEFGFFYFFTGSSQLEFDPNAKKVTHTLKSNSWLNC

| Structure (SMILES) | Ki (Stromelysin-1) | Ki (Neutrophil collagenase) | Ki [1] | Ki (Interstitial collagenase) | Ki [2] |
| --- | --- | --- | --- | --- | --- |
| CNC(=O)[C@@H]1CCCCNC(=O)CC[C@H](C(=O)O)N[C@@H](CCc2ccc(-c3ccccc3)cc2)C(=O)N1 | 2400 nM | 9 nM | 249 nM | 1450 nM | 288 nM |
| CNC(=O)CC[C@@H](N[C@@H](CCc1ccccc1)C(=O)N[C@@H](CCCCNC(C)=O)C(=O)NC)C(=O)O | 14100 nM | 293 nM | 1530 nM |  | 404 nM |
| CNC(=O)[C@@H]1CCC(=O)OCCNC(=O)CC[C@H](C(=O)O)N[C@@H](CCc2ccccc2)C(=O)N1 | 2900 nM | 10 nM | 238 nM | 8400 nM | 5800 nM |
| CNC(=O)[C@@H]1CCCCNC(=O)C[C@H](C(=O)O)N[C@@H](CCc2ccccc2)C(=O)N1 | 35000 nM | 531 nM | 2400 nM | 900 nM | 9800 nM |
| CNC(=O)[C@@H]1CCCCNC(=O)CC[C@H](C(=O)O)N[C@@H](CCc2ccccc2)C(=O)N1 | 13500 nM | 17 nM | 8100 nM |  | 6600 nM |
